Laboratory results reported in patent US20050261201A1, “Method of reducing C-reactive protein using growth hormone secretagogues” (Rejuvenon Corporation, priority 2004, published 2005).

Tested on: human CRP
Test: CRP serum levels in CRP transgenic mice (ELISA)
Type: in vivo, C57BL/6J congenic CRP transgenic mice that express human CRP
Settings: daily oral gavage for 14 days, serum at Day 15, vs saline vehicle, n=10
Description: The experiment was conducted to determine the effect of the growth hormone secretagogue RC-1141 on CRP serum levels. The compound RC-1141 was tested in C57BL/6J congenic CRP transgenic mice that express human CRP.
The establishment of a breeding colony of CRPtg C57BL/6J congenic mice has been described in Szalai, A. et al., “Human C-Reactive Protein is Protective Against Fatal Streptococcus pneumoniae Infection in Transgenic Mice,” J. Immunol. 155:2557-2563 (1995), the entire content of which is hereby incorporated by reference. The breeding colony was established by mating transgenic founder males with normal female C57BL/6J mice. The normal female C57BL/6J mice were obtained from Charles River Laboratories (Boston, Mass.). Transgenic founders were obtained from Dr. Ulrich Ruther (Institut für Molekularbiologie, Medizinische Hochschule, Hannover, Germany), and were descendants of transgenic mice originally described by Ciliberto, G., R. Arcone, E. F. Wagner, U. Rüther, “Inducible and tissue-specific expression of human C-reactive protein in transgenic mice” EMBO J, 6:4017 (1987), the entire content of which is hereby incorporated by reference. […]
CRP serum levels were measured using ELISA. […]
Concentration was determined by the ELISA described above. […]

## CN(C(=O)/C=C/CC1(N)CCC1)[C@H](Cc1ccc(-c2ccccc2)cc1)C(=O)N(C)[C@H](Cc1ccccc1)C(=O)N1CCC(O)CC1 [RC-1141, (2E)-4-(1-aminocyclobutyl)but-2-enoic acid N-((1R)-1-{N-[(1R)-1-benzyl-2-(4-hydroxypiperidin-1-yl)-2-oxoethyl]-N-methylcarbomoyl}-2-(biphenyl-4-yl)ethyl)-N-methylamide]
5 mg/kg body weight (low dose)
  CRP serum levels: significant decrease
10 mg/kg body weight (high dose)
  CRP serum levels: significant decrease
